# From patent publication US20200062773A1, “4,4a,5,7-TETRAHYDRO-3H-FURO[3,4-b]PYRIDINYL COMPOUNDS” (Janssen Pharmaceutlca NV, priority 2016, published 2020)
# Key:
# BACE1 = target: T1, BACE1 (Homo sapiens, UniProt P56817); test: BACE1 biochemical FRET based assay; settings: Method 1: recombinant BACE1 1 μg/ml, 120 min at room temperature, pH 5.0; for IC50: read-out: Biochemical FRET based assay pIC50 (converted)
# T1 construct: recombinant BACE1 protein in a final concentration of 1 μg/ml
# Excerpt: BACE1 Biochemical Fret Based Assay
# (§1) This assay is a Fluorescence Resonance Energy Transfer Assay (FRET) based assay. The substrate for this assay is an APP derived 13 amino acids peptide that contains the ‘Swedish’ Lys-Met/Asn-Leu mutation of the amyloid precursor protein (APP) beta-site APP-cleaving enzyme cleavage site. This substrate also contains two fluorophores: (7-methoxycoumarin-4-yl) acetic acid (Mca) is a fluorescent donor with excitation wavelength at 320 nm and emission at 405 nm and 2,4-Dinitrophenyl (Dnp) is a proprietary quencher acceptor. […] Upon cleavage by BACE1, the fluorophore Mca is separated from the quenching group Dnp, restoring the full fluorescence yield of the donor. The increase in fluorescence is linearly related to the rate of proteolysis.
# Briefly in a 384-well format recombinant BACE1 protein in a final concentration of 1 μg/ml is incubated for 120 minutes at room temperature with 10 μm substrate in incubation buffer (40 mM Citrate buffer pH 5.0, 0.04% PEG, 4% DMSO) in the absence or presence of compound. Next the amount of proteolysis is directly measured by fluorescence measurement at T=0 and T=120 (excitation at 320 nm and emission at 405 nm). Results are expressed in RFU (Relative Fluorescence Units), as difference between T120 and T0.
# (§2) A best-fit curve is fitted by a minimum sum of squares method to the plot of % Controlmin versus compound concentration. From this an IC50 value (inhibitory concentration causing 50% inhibition of activity) can be obtained.
# [1] = test system: Abeta 1-42 produced and secreted into the medium of human neuroblastoma SKNBE2 cells; test: Cellular αLisa assay in SKNBE2 cells; assay type: cell-based; settings: human neuroblastoma SKNBE2 cells expressing hAPP695, 18 hours incubation; for IC50: Homo sapiens, SKNBE2, 18 h, read-out: Cellular αLisa assay in SKNBE2 cells Abeta 42 pIC50 (converted)
# Procedure: Cellular αLisa Assay in SKNBE2 Cells
# In two αLisa assays the levels of Abeta 1-42 produced and secreted into the medium of human neuroblastoma SKNBE2 cells are quantified. The assay is based on the human neuroblastoma SKNBE2 expressing the wild type Amyloid Precursor Protein (hAPP695). The compounds are diluted and added to these cells, incubated for 18 hours and then measurements of Abeta 1-42 are taken. Abeta 1-42 are measured by sandwich αLisa. αLisa is a sandwich assay using biotinylated antibody AbN/25 attached to streptavidin coated beads and antibody cAb42/26 conjugated acceptor beads for the detection of Abeta 1-42 respectively. In the presence of Abeta 1-42, the beads come into close proximity. The excitation of the donor beads provokes the release of singlet oxygen molecules that trigger a cascade of energy transfer in the acceptor beads, resulting in light emission. Light emission is measured after 1 hour incubation (excitation at […] and emission at 615 nm).
# as §2
# BACE2 = target: T2, BACE2 (Homo sapiens, UniProt Q9Y5Z0); test: BACE2 biochemical FRET based assay; settings: recombinant BACE2, 450 minutes at room temperature, pH 5.0; for IC50: read-out: Biochemical FRET based assay pIC50 (converted)
# T2 construct: recombinant BACE2 protein in a final concentration of 0.4 μg/ml
# T2 sequence (Q9Y5Z0 63-518): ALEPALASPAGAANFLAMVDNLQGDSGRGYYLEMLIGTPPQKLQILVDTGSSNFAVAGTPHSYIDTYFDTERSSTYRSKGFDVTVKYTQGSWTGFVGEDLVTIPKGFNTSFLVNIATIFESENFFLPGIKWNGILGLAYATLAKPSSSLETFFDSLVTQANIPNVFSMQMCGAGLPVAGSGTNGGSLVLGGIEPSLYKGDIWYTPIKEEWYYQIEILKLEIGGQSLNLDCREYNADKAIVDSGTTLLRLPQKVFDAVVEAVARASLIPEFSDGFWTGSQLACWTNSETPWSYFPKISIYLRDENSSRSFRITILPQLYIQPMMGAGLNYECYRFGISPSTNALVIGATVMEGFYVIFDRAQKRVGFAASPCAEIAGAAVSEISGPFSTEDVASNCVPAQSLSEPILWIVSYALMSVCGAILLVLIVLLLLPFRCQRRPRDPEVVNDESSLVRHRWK
# Excerpt: BACE2 Biochemical FRET Based Assay
# as §1, with “assay” for “assay is an APP derived 13 amino acids peptide that”, “the beta-site APP-cleaving enzyme,” for “BACE1,”
# Briefly in a 384-well format recombinant BACE2 protein in a final concentration of 0.4 μg/ml is incubated for 450 minutes at room temperature with 10 μM substrate in incubation buffer (50 mM Citrate buffer pH 5.0, 0.05% PEG, no DMSO) in the absence or presence of compound. Next the amount of proteolysis is directly measured by fluorescence measurement at T=0 and T=450 (excitation at 320 nm and emission at 405 nm). Results are expressed in RFU (Relative Fluorescence Units), as difference between T450 and T0.
# as §2
# [2] = test system: Abeta 1-42 in cerebrospinal fluid (CSF); test: Pharmacology in the beagle dog: beta-amyloid profile in CSF after a single dose; assay type: in vivo; settings: for % Mean decrease in Abeta 1-42 at 8 h post dosing compared to own baseline / % Mean decrease in Abeta 1-42 at 25 h post dosing compared to own baseline / % Mean decrease in Abeta 1-42 at 49 h post dosing compared to own baseline: beagle dog CSF
# Procedure: Pharmacology in the Beagle Dog
# (§3) Test compounds were tested to evaluate the effect on the beta-amyloid profile in cerebrospinal fluid (CSF) of dogs after a single dose, in combination with pharmacokinetic (PK) follow up and limited safety evaluation. For each of compound 4b, 3c, 7d, or 14, four beagle dogs (2 males, 2 females) were dosed with vehicle (1 ml/kg of an aqueous solution of 20% cyclodextrin) and 12, 8, 4 and 4 beagle dogs (2 males and 2 females per dosage group), were dosed with test compounds as follows:
# (§4) CSF was taken in conscious animals directly from the lateral ventricle via a cannula which was screwed in the skull and covered with subcutaneous tissue and skin, before and at 4, 8, 25 and 49 hours after dosing. Eight hours after dosing the animals got access to their regular meal for 30 minutes. Blood was taken for PK follow up (0.5, 1, 2, 4, 8, 25 and 49 hours) and serum samples for biochemistry were taken before and at 8 and 25 h after dosing. The CSF samples were used for measurement of Abeta 1-42.
# [3] = Limited safety evaluation in the beagle dog (observations, serum biochemistry); assay type: in vivo
# Procedure: as §3
# as §4, with “Blood was taken for PK follow up (0.5, 1, 2, 4, 8, 25 and 49 hours) and serum samples for biochemistry were taken before and at 8 and 25 h after dosing.” left out
# T1 sequence (P56817 46-501): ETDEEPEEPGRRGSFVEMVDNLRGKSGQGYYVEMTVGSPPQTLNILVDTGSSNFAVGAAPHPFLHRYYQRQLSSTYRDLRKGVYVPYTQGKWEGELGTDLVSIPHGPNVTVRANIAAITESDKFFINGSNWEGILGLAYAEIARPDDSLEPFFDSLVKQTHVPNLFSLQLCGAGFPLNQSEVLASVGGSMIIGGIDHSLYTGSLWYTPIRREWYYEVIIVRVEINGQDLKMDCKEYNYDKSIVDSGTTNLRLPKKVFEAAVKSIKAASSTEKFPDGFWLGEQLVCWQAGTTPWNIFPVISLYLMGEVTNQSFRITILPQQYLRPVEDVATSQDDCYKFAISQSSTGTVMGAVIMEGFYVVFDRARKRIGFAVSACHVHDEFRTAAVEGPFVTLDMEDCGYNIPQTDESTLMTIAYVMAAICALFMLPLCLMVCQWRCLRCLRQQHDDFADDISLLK
SMILES,IC50 (BACE1) [nM],IC50 [1] [nM],IC50 (BACE2) [nM],Biochemical FRET based assay pIC50 (BACE1),Cellular αLisa assay in SKNBE2 cells Abeta 42 pIC50 [1],Biochemical FRET based assay pIC50 (BACE2),further results
CC(F)(F)[C@H]1OC[C@]2(c3cc(NC(=O)c4cnc(OCF)cn4)ccc3F)N=C(N)[C@](C)(C#N)C[C@H]12 [compound 14],2.24,6.92,81.3,,,,"% Mean decrease in Abeta 1-42 at 8 h post dosing compared to own baseline ([2]; single dose 0.63 mg/kg): 32%; % Mean decrease in Abeta 1-42 at 25 h post dosing compared to own baseline ([2]; single dose 0.63 mg/kg): NR (NR means % decrease < 20); % Mean decrease in Abeta 1-42 at 49 h post dosing compared to own baseline ([2]; single dose 0.63 mg/kg): NR (NR means % decrease < 20); Observations ([3]; one dog, 0.63 mg/kg single dose, 2 h post dosing): emesis"
C[C@@]1(C#N)C[C@@H]2[C@@H](C(F)(F)F)OC[C@]2(c2cc(NC(=O)c3cnc(OCF)cn3)ccc2F)N=C1N [7d],,,,8.79,8.02,7.25,"% Mean decrease in Abeta 1-42 at 8 h post dosing compared to own baseline ([2]; single dose 0.31 mg/kg): 42%; % Mean decrease in Abeta 1-42 at 25 h post dosing compared to own baseline ([2]; single dose 0.31 mg/kg): NR (NR means % decrease < 20); ALT liver enzyme increase ([3]; one female dog, 0.31 mg/kg single dose): 6 fold; Observations ([3]; one female dog, 0.31 mg/kg single dose, 49 h post dosing): slight tremors and head shaking"
"CC1OCC2(c3cc(NC(=O)c4ccc(C#N)cn4)cc(F)c3F)N=C(N)C(C)(C#N)CC12 (single isomer, unassigned) [33a]",7590,,> 10000,,5.14,,
COc1cc(C(=O)Nc2ccc(F)c([C@]34CO[C@H](C(C)(F)F)[C@H]3C[C@@](C)(C#N)C(N)=N4)c2)ncn1 [18a],24.5,138,1200,,,,
C[C@]1(C#N)C[C@@H]2[C@@H](CF)OC[C@]2(c2cc(NC(=O)c3ccc(C#N)cn3)ccc2F)N=C1N [24b],14.5,31.6,158,,,,
"CC1OCC2(c3cc(NC(=O)c4ccc(C#N)cn4)cc(F)c3F)N=C(N)C(C)(C#N)CC12 (single isomer, unassigned) [33d]",708,,8910,,5.78,,
"COc1cnc(C(=O)Nc2ccc(F)c([C@]34CO[C@H](C)[C@H]3C[C@@](C)(S(C)(=O)=O)C(N)=N4)c2)cn1 (single isomer, unassigned) [13a]",,,,7,7.19,5.9,
"CC1OCC2(c3cc(NC(=O)c4ccc(C#N)cn4)cc(F)c3F)N=C(N)C(C)(C#N)CC12 (single isomer, unassigned) [33c]",35.5,,468,,7.37,,
COc1cnc(C(=O)Nc2ccc(F)c([C@@]34CO[C@@H](C)[C@@H]3C[C@](C)(C#N)C(N)=N4)c2)cn1 [1a],,,,5.05,5.12,<5,

# The next lines start with results.
IC50 (BACE1) [nM],IC50 [1] [nM],IC50 (BACE2) [nM],Biochemical FRET based assay pIC50 (BACE1),Cellular αLisa assay in SKNBE2 cells Abeta 42 pIC50 [1],Biochemical FRET based assay pIC50 (BACE2),SMILES,further results
,,,8.73,8.9,7.84,C[C@H]1OC[C@]2(c3cc(NC(=O)c4ccc(C#N)cn4)ccc3F)N=C(N)[C@](C)(C#N)C[C@H]12 [4b],"% Mean decrease in Abeta 1-42 at 8 h post dosing compared to own baseline ([2]; single dose 0.16 mg/kg): 42%; % Mean decrease in Abeta 1-42 at 25 h post dosing compared to own baseline ([2]; single dose 0.16 mg/kg): 21%; % Mean decrease in Abeta 1-42 at 49 h post dosing compared to own baseline ([2]; single dose 0.16 mg/kg): NR (NR means % decrease < 20); % Mean decrease in Abeta 1-42 at 8 h post dosing compared to own baseline ([2]; single dose 0.31 mg/kg): 54%; % Mean decrease in Abeta 1-42 at 25 h post dosing compared to own baseline ([2]; single dose 0.31 mg/kg): 53%; % Mean decrease in Abeta 1-42 at 49 h post dosing compared to own baseline ([2]; single dose 0.31 mg/kg): NR (NR means % decrease < 20); % Mean decrease in Abeta 1-42 at 8 h post dosing compared to own baseline ([2]; single dose 1.25 mg/kg): 80%; % Mean decrease in Abeta 1-42 at 25 h post dosing compared to own baseline ([2]; single dose 1.25 mg/kg): 71%; % Mean decrease in Abeta 1-42 at 49 h post dosing compared to own baseline ([2]; single dose 1.25 mg/kg): 34%; EC50 Aβ42 ([2]; beagle dog, CSF Abeta 1-42 after single dose): 24 ng/mL; Observations ([3]; one female dog dosed at 1.25 mg/kg, single dose, 8 h post dosing): slight diarrhea"
,,,5.02,<5.05,<5,C[C@]1(C#N)C[C@H]2[C@H](C(F)(F)F)OC[C@@]2(c2cc(NC(=O)c3ccc(C#N)cn3)ccc2F)N=C1N [3d],
,,,5,<5.05,<5,C[C@]1(C#N)C[C@H]2[C@H](C(F)(F)F)OC[C@@]2(c2cc(NC(=O)c3ccc(F)cn3)ccc2F)N=C1N [2d],
2.82,6.31,36.3,,,,C[C@@]1(C#N)C[C@@H]2[C@@H](C(F)F)OC[C@]2(c2cc(NC(=O)c3ccc(C#N)cn3)ccc2F)N=C1N [27a],
